Legend:
[1] = biological target: T1, KIT exon11 deletion (557-558) and secondary mutation D816H (Homo sapiens, UniProt P10721, D816H/DEL557-558); test: MTS viability assay, Ba/F3 expressing KIT exon11 deletion (557-558) and D816H; format: cell-based; settings: 72 h, KIT exon11 deletion (557-558) plus secondary mutation, mean of at least 3 biological replicates
T1 construct: expressed in transfected cells; host or cells: Ba/F3 cells infected with lentivirus (pLVX-IRES Puro vector)
Experimental: (§1) 3 different KIT cDNA encoding for the exon11 deletion (557-558) and a secondary mutation (V654A, T670I, D816H) from Genescript were cloned into pLVX-IRES Puro vector(Clontech). Lentiviral particles were generated using Trans-lentiviral ORF packaging kit (TLP 5918) from Thermo Scientific (Waltham, Mass.) in HEK293-T/17 cells, according to the manufacturer's instructions.
(§2) Exponentially grown Ba/F3 cells (1.5×10^6 cells in 2 ml medium) were infected with 2 ml of viral suspension in a 6-well plate in the presence of mIL-3 (10 ng/ml) and polybrene (4 μg/ml) (Sigma Aldrich, St. Louis, Mo.) and incubated for 24 h. After 24 h, the cells were centrifuged and the viral supernatant was discarded. The cells were then re-suspended in fresh medium and allowed to recover for another day. The following day, the cells were seeded in complete medium without murine IL-3. After a week or two, when cells started proliferating, a selection was carried out by gradually increasing the puromycin concentration to 0.5 ug/ml. Once the cells were growing exponentially in puromycin, batches of cells were frozen down for banking.
(§3) The impact of KIT inhibitors on the viability of Ba/F3 expressing KIT mutations was determined using an MTS assay, which is a colorimetric sensitive quantification of viable cells in proliferation and cytotoxicity assay. In the MTS assay […] in the presence of phenazine methosulfate (PMS) was used. The mitochondrial reductase forms a formazan which absorbs at 490 nm. Cells in exponential growth phase were added to 384-well plates containing pre-dispensed compounds (top concentration 10 uM, 10-point curve). The cells were incubated for 72 h at 37° C. and 5% CO2. After 72 h, MTS reagent was added to the plates and incubated an additional 2 h at 37° C. before measuring the absorbance at 490 nm on a Tecan microplate reader using Magellan Software (Tecan Trading AG, Switzerland).
(§4) The absorbances were normalized as follows: (Read-Day0 control)/(Day3 control-Day0 control)*100. The GI50 values were generated using Genedata Screener software (Genedata; Lexington, Mass.). A non-linear regression with constraints for top and bottom between 100 and −100 and no constraint on the Hill coefficient was used to generate GI50 values. The GI50 values reported below are the calculated mean result of at least 3 biological replicates across all the cell lines tested.

[2] = system: Tel-KDR (KDR K790-V1356 fused to the C-terminus of Tel); test: MTS viability assay, Ba/F3 expressing Tel-KDR; format: cell-based; settings: 72 h, Ba/F3 cells, mean of at least 3 biological replicates
Experimental: Tel-KDR myc was cloned into pBCS2004, a retroviral vector, wherein KDR (K790-V1356) is fused to the C-terminus of Tel. Retroviral particles were generated in HEK293T cells. The Tel-KDR plasmid was co-transfected with helper viruses (gag-Pol and VSV-G) into HEK293T cells using calcium phosphate and the virus was harvested 72 h after transfection.
as §2, §3, §4

Ba/F3-Parental = test: MTS viability assay, Ba/F3 parental cells; format: cell-based; settings: Mus musculus, BaF3, 72 h, top concentration 10 uM, mean of at least 3 biological replicates
Experimental: as §3, §4

[3] = biological target: T2, KIT exon11 deletion (557-558) and secondary mutation T670I (Homo sapiens, UniProt P10721, DEL557-558/T670I); test: MTS viability assay, Ba/F3 expressing KIT exon11 deletion (557-558) and T670I; format: cell-based; settings: 72 h, KIT exon11 deletion (557-558) plus secondary mutation, mean of at least 3 biological replicates
T2 construct: expressed in transfected cells; host or cells: Ba/F3 cells infected with lentivirus (pLVX-IRES Puro vector)
T2 sequence (P10721 with tags, fused parts or gaps DEL557-558/T670I): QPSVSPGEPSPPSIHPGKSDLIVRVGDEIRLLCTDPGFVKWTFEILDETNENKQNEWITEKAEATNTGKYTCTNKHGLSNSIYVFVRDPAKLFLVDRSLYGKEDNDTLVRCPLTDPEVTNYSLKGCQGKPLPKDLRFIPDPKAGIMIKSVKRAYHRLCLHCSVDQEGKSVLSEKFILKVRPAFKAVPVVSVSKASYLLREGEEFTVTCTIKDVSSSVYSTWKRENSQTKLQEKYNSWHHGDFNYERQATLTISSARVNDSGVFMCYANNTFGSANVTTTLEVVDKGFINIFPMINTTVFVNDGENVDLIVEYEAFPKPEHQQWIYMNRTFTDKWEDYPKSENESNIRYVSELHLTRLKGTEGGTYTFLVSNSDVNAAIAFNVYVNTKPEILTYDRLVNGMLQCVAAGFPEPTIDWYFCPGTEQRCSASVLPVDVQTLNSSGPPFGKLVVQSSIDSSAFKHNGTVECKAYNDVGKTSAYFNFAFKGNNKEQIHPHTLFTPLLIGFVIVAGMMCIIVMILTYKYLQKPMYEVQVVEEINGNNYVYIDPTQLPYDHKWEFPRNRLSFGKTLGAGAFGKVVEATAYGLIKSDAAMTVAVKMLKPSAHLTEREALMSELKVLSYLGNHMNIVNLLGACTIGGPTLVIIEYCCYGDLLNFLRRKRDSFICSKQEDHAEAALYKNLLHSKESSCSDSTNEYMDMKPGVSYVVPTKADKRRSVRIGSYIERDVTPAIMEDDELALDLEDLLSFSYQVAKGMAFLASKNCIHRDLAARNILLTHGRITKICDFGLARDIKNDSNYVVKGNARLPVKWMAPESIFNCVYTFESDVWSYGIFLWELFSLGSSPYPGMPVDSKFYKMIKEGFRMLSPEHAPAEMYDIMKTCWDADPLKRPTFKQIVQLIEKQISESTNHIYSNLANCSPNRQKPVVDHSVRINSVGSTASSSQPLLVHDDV
Experimental: as §1, §2, §3, §4

[4] = biological target: T3, KIT exon11 deletion (557-558) and secondary mutation V654A (Homo sapiens, UniProt P10721, DEL557-558/V654A); test: MTS viability assay, Ba/F3 expressing KIT exon11 deletion (557-558) and V654A; format: cell-based; settings: 72 h, KIT exon11 deletion (557-558) plus secondary mutation, mean of at least 3 biological replicates
T3 construct: expressed in transfected cells; host or cells: Ba/F3 cells infected with lentivirus (pLVX-IRES Puro vector)
T3 sequence (P10721 with tags, fused parts or gaps DEL557-558/V654A): as the sequence (P10721 with tags, fused parts or gaps DEL557-558/T670I) above, with V627A, I643T counted along it
Experimental: as §1, §2, §3, §4

GIST [5] = settings: within 2 years; cited from earlier work
GIST [6] = settings: PhIII study, patients with GIST after relapse to imatinib and sunitinib; cited from earlier work

T1 sequence (P10721 with tags, fused parts or gaps DEL557-558/D816H): as the sequence (P10721 with tags, fused parts or gaps DEL557-558/T670I) above, with I643T, D789H counted along it

GI50 [2] [nM] | SMILES | Ba/F3-D816H GI50 [1] [nM] | GI50 (Ba/F3-Parental) [nM] | Ba/F3-T6701 GI50 [3] [nM] | Ba/F3-V654A GI50 [4] [nM] | patients developed resistance (GIST [5]) [%] | median PFS (GIST [6]) [months]
600 | COc1cc2ncnc(Oc3ccc(NC(=O)Cn4cc(C(C)C)nn4)cc3)c2cc1OC [Example 1, N-(4-((6,7-Dimethoxyquinazolin-4-yl)oxy)phenyl)-2-(4-isopropyl-1H-1,2,3-triazol-1-yl)acetamide] | 19 | ≥ 10000 | 17 | 3 | – | –
289 | COCCOc1cc2ncnc(Oc3ccc(NC(=O)Cn4cc(C(C)C)nn4)cc3)c2cc1OC [Example 5, 2-(4-Isopropyl-1H-1,2,3-triazol-1-yl)-N-(4-((6-methoxy-7-(2-methoxyethoxy)quinazolin-4-yl)oxy)phenyl)acetamide] | 15 | ≥ 10000 | 11 | 8 | – | –
1840 | COc1cc2c(Oc3ccc(NC(=O)Cn4cc(C(C)C)nn4)cc3)ncnc2cc1OC1COC1 [Example 10, 2-(4-Isopropyl-1H-1,2,3-triazol-1-yl)-N-(4-((6-methoxy-7-(oxetan-3-yloxy)quinazolin-4-yl)oxy)phenyl)acetamide] | 51 | ≥ 10000 | 74 | 18 | – | –
1080 | COc1cc(Oc2ncnc3cc(OC)c(OC)cc23)ccc1NC(=O)Cn1cc(C(C)C)nn1 [Example 3, N-(4-((6,7-Dimethoxyquinazolin-4-yl)oxy)-2-methoxyphenyl)-2-(4-isopropyl-1H-1,2,3-triazol-1-yl)acetamide] | 41 | ≥ 10000 | 23 | 13 | – | –
1160 | COc1cc2c(Oc3ccc(NC(=O)Cn4cc(C(C)C)nn4)cc3)ncnc2cc1OCCO [Example 8, N-(4-((7-(2-Hydroxyethoxy)-6-methoxyquinazolin-4-yl)oxy)phenyl)-2-(4-isopropyl-1H-1,2,3-triazol-1-yl)acetamide] | 75 | ≥ 10000 | 55 | 25 | – | –
– | Cc1ccc(NC(=O)c2ccc(CN3CCN(C)CC3)cc2)cc1Nc1nccc(-c2cccnc2)n1 [imatinib, Imatinib] | – | – | – | – | 50 | –
577 | COc1cc2c(Oc3ccc(NC(=O)Cn4cc(C(C)C)nn4)cc3)ncnc2cc1O[C@H]1CCOC1 (single isomer, unassigned) [Example 13] | 24 | ≥ 10000 | 30 | 13 | – | –
– | CNC(=O)c1cc(Oc2ccc(NC(=O)Nc3ccc(Cl)c(C(F)(F)F)c3)c(F)c2)ccn1 [Regorafenib] | – | – | – | – | – | 4.8
2110 | COc1cc2c(Oc3ccc(NC(=O)Cn4cc(C(C)C)nn4)cc3)ncnc2cc1OC1CCOCC1 [Example 9, 2-(4-Isopropyl-1H-1,2,3-triazol-1-yl)-N-(4-((6-methoxy-7-((tetrahydro-2H-pyran-4-yl)oxy)quinazolin-4-yl)oxy)phenyl)acetamide] | 46 | ≥ 10000 | 77 | 17 | – | –
2520 | COc1cc2c(Oc3ccc(NC(=O)Cn4cc(C(C)C)nn4)cc3)ncnc2cc1OCCN(C)C [Example 7, N-(4-((7-(2-(Dimethylamino)ethoxy)-6-methoxyquinazolin-4-yl)oxy)phenyl)-2-(4-isopropyl-1H-1,2,3-triazol-1-yl)acetamide] | 41 | ≥ 10000 | 57 | 15 | – | –
2770 | COc1cc2c(Oc3ccc(NC(=O)Cn4cc(C(C)C)nn4)cc3)ncnc2cc1OCCN1CCCC1 [Example 6, 2-(4-Isopropyl-1H-1,2,3-triazol-1-yl)-N-(4-((6-methoxy-7-(2-(pyrrolidin-1-yl)ethoxy)quinazolin-4-yl)oxy)phenyl)acetamide] | 55 | ≥ 10000 | 72 | 22 | – | –
840 | COc1cc2c(Oc3ccc(NC(=O)Cn4cc(C(C)C)nn4)cc3)ncnc2cc1O[C@@H]1CCOC1 (single isomer, unassigned) [Example 12] | 22 | ≥ 10000 | 23 | 11 | – | –
142 | COc1cc2ncnc(Oc3ccc(NC(=O)Cn4cc(C(C)C)nn4)cc3F)c2cc1OC [Example 4, N-(4-((6,7-Dimethoxyquinazolin-4-yl)oxy)-3-fluorophenyl)-2-(4-isopropyl-1H-1,2,3-triazol-1-yl)acetamide] | 15 | ≥ 10000 | 8 | 1 | – | –
1930 | COc1cc2ncnc(Oc3ccc(NC(=O)Cn4cc(C5CC5)nn4)cc3)c2cc1OC [Example 2, 2-(4-Cyclopropyl-1H-1,2,3-triazol-1-yl)-N-(4-((6,7-dimethoxyquinazolin-4-yl)oxy)phenyl)acetamide] | 95 | ≥ 10000 | 68 | 4 | – | –
903 | COc1cc2c(Oc3ccc(NC(=O)Cn4cc(C(C)C)nn4)cc3)ncnc2cc1OC(C)C [Example 11, N-[4-(7-Isopropoxy-6-methoxy-quinazolin-4-yl)oxyphenyl]-2-(4-isopropyl-1H-1,2,3-triazol-1-yl)acetamide] | 28 | ≥ 10000 | 57 | 16 | – | –

Source: US11053223B2, “Phenoxyquinazoline compounds and their use in treating cancer” (AstraZeneca AB, priority 2017, dated 2021)
